{"source": "patent US20250230193A1", "about": "“CYCLIC COMPOUND HAVING SELECTIVE KRAS INHIBITORY EFFECT ON HRAS AND NRAS” (CHUGAI SEIYAKU KABUSHIKI KAISHA, priority 2022, published 2025)", "key": {"[1]": {"target": "GDP-bound HRAS wild-type protein (Homo sapiens, UniProt P01112)", "sequence (P01112 whole entry)": "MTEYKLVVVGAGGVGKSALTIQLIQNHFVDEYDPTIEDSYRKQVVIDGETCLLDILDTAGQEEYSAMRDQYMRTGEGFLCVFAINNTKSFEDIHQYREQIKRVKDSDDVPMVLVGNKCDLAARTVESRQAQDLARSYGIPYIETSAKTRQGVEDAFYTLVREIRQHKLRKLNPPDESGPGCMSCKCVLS", "experiment": "Binding to HRAS by surface plasmon resonance (SPR), Single Cycle Kinetics"}, "[2]": {"target": "GDP-bound NRAS wild-type protein (Homo sapiens, UniProt P01111)", "sequence (P01111 whole entry)": "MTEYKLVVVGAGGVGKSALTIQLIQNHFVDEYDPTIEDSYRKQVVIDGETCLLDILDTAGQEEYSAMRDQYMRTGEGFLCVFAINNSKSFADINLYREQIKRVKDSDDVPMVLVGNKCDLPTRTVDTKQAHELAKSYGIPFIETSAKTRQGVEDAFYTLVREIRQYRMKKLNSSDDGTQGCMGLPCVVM", "experiment": "Binding to NRAS by surface plasmon resonance (SPR), Single Cycle Kinetics"}, "[3]": {"details": "KD ratio, GDP-bound HRAS wild-type vs GDP-bound KRAS wild-type, SPR"}, "[4]": {"details": "KD ratio, GDP-bound NRAS wild-type vs GDP-bound KRAS wild-type, SPR"}, "[5]": {"details": "SPR, GDP-bound HRAS wild-type vs GDP-bound KRAS wild-type"}, "[6]": {"details": "SPR, GDP-bound NRAS wild-type vs GDP-bound KRAS wild-type"}, "[7]": {"details": "SPR, GDP-bound wild-type proteins"}}, "note": "*1 amine or outer side, *2 acyl side, *3 side chain or, on linkers, in order; H or OH if unused. Where a SMILES comes first, the peptide text is derived from it. Bridges are numbered along the chain shown (N, C = ends). [ ]: non-standard residue; d: D form. The star is where a group is joined. hPhe(3-Cl-4-CF3) = N[C@@H](CCc1ccc(C(F)(F)F)c(Cl)c1)C(=O)O; X42 = COCCCN([C@@H](Cc1ccc(C(F)(F)F)cc1)C(=O)[*:2])[*:1]; X17 = CCCCN([C@@H](Cc1ccc(C(F)(F)F)cc1)C(=O)[*:2])[*:1]; X27 = Cc1ccc(C[C@@H](C(=O)[*:2])N(CC2CCCCC2)[*:1])cc1; X34 = Cc1ccc(C[C@@H](C(=O)[*:2])N(CCC(C)C)[*:1])cc1; NMeGly(cPent) = CN[C@H](C(=O)O)C1CCCC1; NMeD = CN[C@@H](CC(=O)O)C(=O)O; NMeL = CN[C@@H](CC(C)C)C(=O)O; Morpholide = C1CN(*)CCO1; NMeA = CN[C@@H](C)C(=O)O; Ac5c = NC1(C(=O)O)CCCC1; Aze = O=C(O)[C@@H]1CCN1; Sar = CNCC(=O)O"}
{"smiles": "CCCCN1C(=O)[C@@H]2CCN2C(=O)[C@H](C)N(C)C(=O)[C@H]([C@@H](C)CC)NC(=O)[C@H](CC(C)C)N(C)C(=O)C[C@@H](C(=O)N2CCOCC2)N(C)C(=O)[C@H](C2CCCC2)N(C)C(=O)C2(CCCC2)NC(=O)[C@@H]2CCCN2C(=O)[C@H](CCc2ccc(C(F)(F)F)c(Cl)c2)NC(=O)CN(C)C(=O)[C@@H]1Cc1ccc(C(F)(F)F)cc1", "note": "[PP0106] ([NMeL]I[NMeA][Aze][X17][Sar][hPhe(3-Cl-4-CF3)]P[Ac5c][NMeGly(cPent)][NMeD]-Morpholide; lactam N-11)", "values": [{"measurement": "HRAS/KRAS (ratio of KD for GDP-bound HRAS wild-type to KD for KRAS)", "setting": "[1]; SPR", "result": "B (a compound having 3 or more and less than 10 is denoted as B)"}, {"measurement": "NRAS/KRAS (ratio of KD for GDP-bound NRAS wild-type to KD for KRAS)", "setting": "[2]; SPR", "result": "C (A compound having a KD ratio of 0.1 or more and less than 3 is denoted as C)"}]}
{"smiles": "CCC(CC)[C@H]1C(=O)N(C)[C@H](C(=O)N(C)C)CC(=O)N(C)[C@@H](COC)C(=O)N[C@@H]([C@@H](C)CC)C(=O)N(C2CC2)CC(=O)N(C)[C@H]2C/C=C\\CCN(C2=O)[C@@H](Cc2ccc(C(F)F)cc2)C(=O)N(C)CC(=O)N[C@@H](CCc2cc(F)c(C(F)(F)F)c(F)c2)C(=O)N2C[C@H](OC3CCCC3)C[C@H]2C(=O)NC2(CC(C)(C)C2)C(=O)N1C", "note": "[PP2633]", "values": [{"measurement": "HRAS/KRAS (ratio of KD value with respect to GDP-bound HRAS wild-type protein to KD value with respect to KRAS)", "setting": "[1]; class symbols", "result": "A (a compound having 10 or more and less than 20 is denoted as A)"}, {"measurement": "NRAS/KRAS (ratio of KD value with respect to GDP-bound NRAS wild-type protein to KD value with respect to KRAS)", "setting": "[2]; class symbols", "result": "AA (a compound having 20 or more is denoted as AA)"}]}
{"smiles": "CCO[C@@H]1C[C@H]2C(=O)NC3(CCC3)C(=O)N(C)[C@@H](C3CCCC3)C(=O)N(C)[C@H](C(=O)N3CCOCC3)CC(=O)N(C)[C@@H](Cc3ccsc3)C(=O)N[C@@H]([C@@H](C)CC)C(=O)N(C)CC(=O)N(C)[C@H]3CCCCCN(C3=O)[C@@H](Cc3ccc(C(F)(F)F)cc3)C(=O)N(C)CC(=O)N[C@@H](CCc3cc(F)c(C(F)(F)F)c(F)c3)C(=O)N2C1", "note": "[PP1164]", "values": [{"measurement": "HRAS/KRAS (ratio of KD value with respect to HRAS to KD value with respect to KRAS)", "setting": "[1]; [3]", "result": "B (a compound having 3 or more and less than 10 is denoted as B)"}, {"measurement": "NRAS/KRAS (ratio of KD value with respect to NRAS to KD value with respect to KRAS)", "setting": "[2]; [4]", "result": "B (a compound having 3 or more and less than 10 is denoted as B)"}]}
{"smiles": "CC[C@H](C)[C@@H]1NC(=O)[C@H](CC(C)C)N(C)C(=O)C[C@@H](C(=O)N2CCOCC2)N(C)C(=O)[C@H](C2CCCC2)N(C)C(=O)C2(CCCC2)NC(=O)[C@@H]2CCCN2C(=O)[C@H](CCc2ccc(C(F)(F)F)c(Cl)c2)NC(=O)CN(C)C(=O)[C@H](Cc2ccc(C)cc2)N(CC2CCCCC2)C(=O)[C@@H]2CCN2C(=O)[C@H](C)N(C)C1=O", "note": "[PP0085] ([NMeL]I[NMeA][Aze][X27][Sar][hPhe(3-Cl-4-CF3)]P[Ac5c][NMeGly(cPent)][NMeD]-Morpholide; lactam N-11)", "values": [{"measurement": "HRAS/KRAS (ratio of KD for GDP-bound HRAS wild-type to KD for KRAS)", "setting": "[1]; SPR", "result": "C (A compound having a KD ratio of 0.1 or more and less than 3 is denoted as C)"}, {"measurement": "NRAS/KRAS (ratio of KD for GDP-bound NRAS wild-type to KD for KRAS)", "setting": "[2]; SPR", "result": "C (A compound having a KD ratio of 0.1 or more and less than 3 is denoted as C)"}]}
{"smiles": "CC[C@H](C)[C@@H]1NC(=O)[C@H](CC(C)C)N(C)C(=O)C[C@@H](C(=O)N2CCOCC2)N(C)C(=O)[C@H](C2CCCC2)N(C)C(=O)C2(CCCC2)NC(=O)[C@@H]2CCCN2C(=O)[C@H](CCc2ccc(C(F)(F)F)c(Cl)c2)NC(=O)CN(C)C(=O)[C@H](Cc2ccc(C(F)(F)F)cc2)N(CCCOC)C(=O)[C@@H]2CCN2C(=O)[C@H](C)N(C)C1=O", "note": "[PP0119] ([NMeL]I[NMeA][Aze][X42][Sar][hPhe(3-Cl-4-CF3)]P[Ac5c][NMeGly(cPent)][NMeD]-Morpholide; lactam N-11)", "values": [{"measurement": "HRAS/KRAS (ratio of KD for GDP-bound HRAS wild-type to KD for KRAS)", "setting": "[1]; SPR", "result": "C (A compound having a KD ratio of 0.1 or more and less than 3 is denoted as C)"}, {"measurement": "NRAS/KRAS (ratio of KD for GDP-bound NRAS wild-type to KD for KRAS)", "setting": "[2]; SPR", "result": "C (A compound having a KD ratio of 0.1 or more and less than 3 is denoted as C)"}]}
{"smiles": "CCC[C@H]1C(=O)N[C@@H](C2CCCC2)C(=O)N(C)CC(=O)N(C)[C@H]2C/C=C\\CCN(C2=O)[C@@H](Cc2ccc(C)cc2)C(=O)N(C)CC(=O)N[C@@H](CCc2ccc(C(F)(F)F)c(Cl)c2)C(=O)N2C[C@H](OCC)C[C@H]2C(=O)NC2(CC(C)(C)C2)C(=O)N(C)[C@@H](CC(C)(C)C)C(=O)N(C)[C@H](C(=O)N(C)C)CC(=O)N1C", "note": "[PP2196]", "values": [{"measurement": "HRAS/KRAS (ratio of KD value with respect to HRAS to KD value with respect to KRAS)", "setting": "[1]; [5]", "result": "B (a compound having 3 or more and less than 10 is denoted as B)"}, {"measurement": "NRAS/KRAS (ratio of KD value with respect to NRAS to KD value with respect to KRAS)", "setting": "[2]; [6]", "result": "A (a compound having 10 or more and less than 20 is denoted as A)"}]}
{"smiles": "CCC[C@H]1C(=O)N[C@@H](C2CCOCC2)C(=O)N(C)CC(=O)N(C)[C@H]2C/C=C\\CCN(C2=O)[C@@H](Cc2ccc(C(F)(F)F)cc2)C(=O)N(C)CC(=O)N[C@@H](CCc2ccc(C(F)(F)F)c(Cl)c2)C(=O)N2C[C@H](OCC)C[C@H]2C(=O)NC2(CC(C)(C)C2)C(=O)N(C)[C@@H](CC(C)(C)C)C(=O)N(C)[C@H](C(=O)N(C)C)CC(=O)N1C", "note": "[PP3022]", "values": [{"measurement": "HRAS/KRAS (ratio of KD value with respect to GDP-bound HRAS wild-type protein to KD value with respect to KRAS)", "setting": "[1]; [7]", "result": "A (a compound having 10 or more and less than 20 is denoted as A)"}, {"measurement": "NRAS/KRAS (ratio of KD value with respect to GDP-bound NRAS wild-type protein to KD value with respect to KRAS)", "setting": "[2]; [7]", "result": "AA (a compound having 20 or more is denoted as AA)"}]}
{"smiles": "CCO[C@@H]1C[C@H]2C(=O)NC3(CCC3)C(=O)N(C)[C@@H](C3CCCC3)C(=O)N(C)[C@H](C(=O)N3CCOCC3)CC(=O)N(C)[C@@H](Cc3ccc(C#N)cc3)C(=O)N[C@@H]([C@@H](C)CC)C(=O)N(C)CC(=O)N(C)[C@H]3CCCCCN(C3=O)[C@@H](Cc3ccc(C(F)(F)F)cc3)C(=O)N(C)CC(=O)N[C@@H](CCc3cc(F)c(C(F)(F)F)c(F)c3)C(=O)N2C1", "note": "[PP1167]", "values": [{"measurement": "HRAS/KRAS (ratio of KD value with respect to HRAS to KD value with respect to KRAS)", "setting": "[1]; [3]", "result": "B (a compound having 3 or more and less than 10 is denoted as B)"}, {"measurement": "NRAS/KRAS (ratio of KD value with respect to NRAS to KD value with respect to KRAS)", "setting": "[2]; [4]", "result": "B (a compound having 3 or more and less than 10 is denoted as B)"}]}
{"smiles": "CCO[C@@H]1C[C@H]2C(=O)NC3(CC(C)(C)C3)C(=O)N(C)[C@@H](C3CCCC3)C(=O)N(C)[C@H](C(=O)N(C)C)CC(=O)N(C)[C@@H](CC(F)F)C(=O)N[C@@H]([C@@H](C)CC)C(=O)N(C)CC(=O)N(C)[C@H]3C/C=C\\CCN(C3=O)[C@@H](Cc3ccc(C(F)(F)F)cc3)C(=O)N(C)CC(=O)N[C@@H](CCc3ccc(C(F)(F)F)c(Cl)c3)C(=O)N2C1", "note": "[PP1747]", "values": [{"measurement": "HRAS/KRAS (ratio of KD value for HRAS to KD value for KRAS)", "setting": "[1]; [3]", "result": "A (a compound having 10 or more and less than 20 is denoted as A)"}, {"measurement": "NRAS/KRAS (ratio of KD value for NRAS to KD value for KRAS)", "setting": "[2]; [4]", "result": "A (a compound having 10 or more and less than 20 is denoted as A)"}]}
{"smiles": "CCC[C@H]1C(=O)N[C@@H]([C@@H](C)CC)C(=O)N(C)CC(=O)N(C)[C@H]2C/C=C\\CCN(C2=O)[C@@H](Cc2ccc(C)cc2)C(=O)N(C)CC(=O)N[C@@H](CCc2cc(F)c(C(F)(F)F)c(F)c2)C(=O)N2C[C@H](OCC)C[C@H]2C(=O)NC2(CC(C)(C)C2)C(=O)N(C)[C@@H](C(CC)CC)C(=O)N(C)[C@H](C(=O)N(C)C)CC(=O)N1C", "note": "[PP2064]", "values": [{"measurement": "HRAS/KRAS (ratio of KD value with respect to HRAS to KD value with respect to KRAS)", "setting": "[1]; [5]", "result": "A (a compound having 10 or more and less than 20 is denoted as A)"}, {"measurement": "NRAS/KRAS (ratio of KD value with respect to NRAS to KD value with respect to KRAS)", "setting": "[2]; [6]", "result": "A (a compound having 10 or more and less than 20 is denoted as A)"}]}
{"smiles": "CC[C@H](C)[C@@H]1NC(=O)[C@H](CC(C)C)N(C)C(=O)C[C@@H](C(=O)N2CCOCC2)N(C)C(=O)[C@H](C2CCCC2)N(C)C(=O)C2(CCCC2)NC(=O)[C@@H]2CCCN2C(=O)[C@H](CCc2ccc(C(F)(F)F)c(Cl)c2)NC(=O)CN(C)C(=O)[C@H](Cc2ccc(C)cc2)N(CCC(C)C)C(=O)[C@@H]2CCN2C(=O)[C@H](C)N(C)C1=O", "note": "[PP0086] ([NMeL]I[NMeA][Aze][X34][Sar][hPhe(3-Cl-4-CF3)]P[Ac5c][NMeGly(cPent)][NMeD]-Morpholide; lactam N-11)", "values": [{"measurement": "HRAS/KRAS (ratio of KD for GDP-bound HRAS wild-type to KD for KRAS)", "setting": "[1]; SPR", "result": "B (a compound having 3 or more and less than 10 is denoted as B)"}, {"measurement": "NRAS/KRAS (ratio of KD for GDP-bound NRAS wild-type to KD for KRAS)", "setting": "[2]; SPR", "result": "C (A compound having a KD ratio of 0.1 or more and less than 3 is denoted as C)"}]}
